From patent publication US20090069320A1, “Substituted 4-Amino-Quinazoline Compounds with Metabotropic Glutamate Receptor Regulating Activity and Uses Thereof” (Gruenenthal GmbH, priority 2006, published 2009) come the findings set out here.

T1 sequence (I3LUI7 19-1212): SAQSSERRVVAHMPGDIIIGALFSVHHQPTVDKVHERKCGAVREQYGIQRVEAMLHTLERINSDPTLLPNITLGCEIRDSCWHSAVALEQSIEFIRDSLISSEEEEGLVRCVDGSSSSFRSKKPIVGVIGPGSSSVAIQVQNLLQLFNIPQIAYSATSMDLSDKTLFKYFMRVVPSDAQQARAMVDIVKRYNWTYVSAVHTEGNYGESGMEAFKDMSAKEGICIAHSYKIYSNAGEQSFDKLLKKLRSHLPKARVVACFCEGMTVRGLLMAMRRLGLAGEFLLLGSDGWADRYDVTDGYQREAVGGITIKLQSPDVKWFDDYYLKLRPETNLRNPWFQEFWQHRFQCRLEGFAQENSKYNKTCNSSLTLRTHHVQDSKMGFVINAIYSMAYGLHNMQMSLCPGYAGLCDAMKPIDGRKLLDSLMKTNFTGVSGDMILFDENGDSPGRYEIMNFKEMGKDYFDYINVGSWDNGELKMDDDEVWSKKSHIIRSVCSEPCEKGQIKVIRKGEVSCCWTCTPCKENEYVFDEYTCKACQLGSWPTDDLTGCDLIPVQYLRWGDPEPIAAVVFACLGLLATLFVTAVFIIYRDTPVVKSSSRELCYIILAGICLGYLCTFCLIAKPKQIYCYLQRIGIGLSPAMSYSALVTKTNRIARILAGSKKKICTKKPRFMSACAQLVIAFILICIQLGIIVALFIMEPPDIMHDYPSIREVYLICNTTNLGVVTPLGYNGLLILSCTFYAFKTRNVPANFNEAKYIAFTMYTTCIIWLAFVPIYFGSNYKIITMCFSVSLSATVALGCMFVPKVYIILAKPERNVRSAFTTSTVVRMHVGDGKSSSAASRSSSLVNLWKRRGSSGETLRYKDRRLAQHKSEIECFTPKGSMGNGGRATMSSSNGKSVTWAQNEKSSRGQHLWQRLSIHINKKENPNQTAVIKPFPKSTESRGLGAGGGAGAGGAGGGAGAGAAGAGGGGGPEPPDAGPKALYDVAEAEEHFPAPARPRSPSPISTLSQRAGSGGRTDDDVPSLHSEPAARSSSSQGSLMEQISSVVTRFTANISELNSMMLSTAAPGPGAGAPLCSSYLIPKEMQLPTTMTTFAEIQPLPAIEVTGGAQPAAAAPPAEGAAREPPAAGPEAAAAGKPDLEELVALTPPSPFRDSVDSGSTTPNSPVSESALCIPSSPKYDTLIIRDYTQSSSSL

One assay has as its target T1, mGluR5 receptor (Sus scrofa, UniProt I3LUI7).
T1 construct: 450 μg of protein from brain homogenate with 5 nM ^3[H]-MPEP; from tissue; host or cells: pig brain halves without medulla, cerebellum and pons
The experiment in a line: [3H]-MPEP mGluR5 receptor binding assay (pig brain homogenate). The following applies: 5 nM [3H]-MPEP, read-out: IC50 mGluR5 Receptor (pig) [^3H]-MPEP Bond. The procedure, abridged: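 Radioligand displacement of 5 nM [3H]-MPEP from pig brain homogenate (450 μg protein; medulla, cerebellum and pons removed) in 20 mM Hepes pH 8.0. Compounds were tested at 10 μM, incubated 60 min at room temperature, then filtered and counted by scintillation. Non-specific binding was defined with 10 μM MPEP.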
As a reminder, the IC50 is the concentration that gives 50% inhibition. For the molecule `CS(=O)(=O)N(Cc1cccc(-c2cc(F)c3ncnc(NC4CC4)c3c2)c1)C1CC1` [Example 678, N-cyclopropyl-N-(3-(4-(cyclopropylamino)-8-fluoroquinazolin-6-yl)benzyl)methane sulfonamide], the IC50 worked out at 220 nM.

The assay is the same for the next values; noted with them: 10 μM compound, 5 nM [3H]-MPEP.
As to `COc1ccc(S(=O)(=O)N(Cc2cccc(-c3cc4c(NC5CC5)ncnc4cc3C)c2)C2CC2)cc1` [Example 659, N-cyclopropyl-N-(3-(4-(cyclopropylamino)-7-methylquinazolin-6-yl)benzyl)-4-methoxybenzole sulfonamide], the “% Inhibition of mGluR5 Receptor (pig) [^3H]-MPEP Bond at 10 μM” value amounted to 86%. Turning to `Cc1cc2ncnc(NC3CC3)c2cc1-c1cccc(CN(C2CC2)S(=O)(=O)c2ccc(Cl)cc2Cl)c1` [Example 667, 2,4-dichloro-N-cyclopropyl-N-(3-(4-(cyclopropylamino)-7-methylquinazolin-6-yl)benzyl)benzole sulfonamide], the “% Inhibition of mGluR5 Receptor (pig) [^3H]-MPEP Bond at 10 μM” value amounted to 40%. Still for that read-out and setting: next, `Cc1cc2ncnc(NC3CC3)c2cc1-c1cccc(CN(C2CC2)S(=O)(=O)c2c(F)c(F)c(F)c(F)c2F)c1` [Example 675, N-cyclopropyl-N-(3-(4-(cyclopropylamino)-7-methylquinazolin-6-yl)benzyl)-2,3,4,5,6-pentafluorobenzole sulfonamide]: 48%; `O=S(=O)(c1cccc(C(F)(F)F)c1)N(Cc1cccc(-c2cc(F)c3ncnc(NC4CC4)c3c2)c1)C1CC1` [Example 686, N-cyclopropyl-N-(3-(4-(cyclopropylamino)-8-fluoroquinazolin-6-yl)benzyl)-3-(trifluoromethyl)benzole sulfonamide]: 68%.

Still in this assay, the particulars now being: 10 μM compound, 5 nM [3H]-MPEP, read-out: % Inhibition of mGluR5 Receptor (pig) [^3H]-MPEP Bond at 10 μM.
For orientation: inhibition means how much of the control response was suppressed. With `Cc1cc2ncnc(NC3CC3)c2cc1-c1cccc(CN(C(=O)c2cccc(F)c2)C2CC2)c1` [Example 652, N-cyclopropyl-N-(3-(4-(cyclopropylamino)-7-methylquinazolin-6-yl)benzyl)-3-fluorobenzamide], the inhibition at 10 µM came to 93%. Take `Cc1cc2ncnc(NC3CC3)c2cc1-c1cccc(CN(C(=O)C2CCCCC2)C2CC2)c1` [Example 653, N-cyclopropyl-N-(3-(4-(cyclopropylamino)-7-methylquinazolin-6-yl)benzyl)cyclohexane carboxamide]: the inhibition at 10 µM came to 66%. For `CCCCC(=O)N(Cc1cccc(-c2cc(F)c3ncnc(NC4CC4)c3c2)c1)C1CC1` [Example 654, N-cyclopropyl-N-(3-(4-(cyclopropylamino)-8-fluoroquinazolin-6-yl)benzyl)pentanamide], the inhibition at 10 µM is 82%. In the case of `COc1ccc(CNc2ncnc3ccc(-c4cccc(CN(C(C)=O)C5CC5)c4)cc23)c(OC)c1` [Example 657, N-cyclopropyl-N-(3-(4-(2,4-dimethoxybenzylamino)quinazolin-6-yl)benzyl)acetamide], the inhibition at 10 µM was found to be 36%.

Take `Cc1cc2ncnc(NC3CC3)c2cc1-c1cccc(CN(C(=O)c2ccc(F)cc2F)C2CC2)c1` [Example 660, N-cyclopropyl-N-(3-(4-(cyclopropylamino)-7-methylquinazolin-6-yl)benzyl)-2,4-difluorobenzamide]: the inhibition at 10 µM came to 94%. Turning to `Cc1cc2ncnc(NC3CC3)c2cc1-c1cccc(CN(C(=O)Cc2ccccc2)C2CC2)c1` [Example 661, N-cyclopropyl-N-(3-(4-(cyclopropylamino)-7-methylquinazolin-6-yl)benzyl)-2-phenylacetamide], the inhibition at 10 µM is 89%.

As for `O=C(C1CCCCC1)N(Cc1cccc(-c2cc(F)c3ncnc(NC4CC4)c3c2)c1)C1CC1` [Example 662, N-cyclopropyl-N-(3-(4-(cyclopropylamino)-8-fluoroquinazolin-6-yl)benzyl)cyclohexane carboxamide], the inhibition at 10 µM amounted to 54%. On to `Cc1nc(NC2CC2)c2cc(-c3cccc(CN(C(=O)c4ccccc4C(F)(F)F)C4CC4)c3)ccc2n1` [Example 666, N-cyclopropyl-N-(3-(4-(cyclopropylamino)-2-methylquinazolin-6-yl)benzyl)-2-(trifluoromethyl)benzamide], for which the inhibition at 10 µM amounted to 43%. In the case of `Cc1cc2ncnc(NC3CC3)c2cc1-c1cccc(CN(C(=O)c2ccc(C(F)(F)F)cc2F)C2CC2)c1` [Example 668, N-cyclopropyl-N-(3-(4-(cyclopropylamino)-7-methylquinazolin-6-yl)benzyl)-2-fluoro-4-(trifluoromethyl)benzamide], the inhibition at 10 µM came to 88%. Still for that read-out and setting: next, `Cc1cc2ncnc(NC3CC3)c2cc1-c1cccc(CN(C(=O)CCc2ccccc2)C2CC2)c1` [Example 669, N-cyclopropyl-N-(3-(4-(cyclopropylamino)-7-methylquinazolin-6-yl)benzyl)-3-phenylpropanamide]: 77%; `O=C(Cc1ccccc1)N(Cc1cccc(-c2cc(F)c3ncnc(NC4CC4)c3c2)c1)C1CC1` [Example 670, N-cyclopropyl-N-(3-(4-(cyclopropylamino)-8-fluoroquinazolin-6-yl)benzyl)-2-phenylacetamide]: 79%; `CNc1ncnc2ccc(-c3cccc(CN(C(=O)c4ccno4)c4ccccc4F)c3)cc12` [Example 671, N-(2-fluorophenyl)-N-(3-(4-(methylamino)quinazolin-6-yl)benzyl)isoxazole-5-carboxamide]: 40%.

On to `Cc1cc2ncnc(NC3CC3)c2cc1-c1cccc(CN(C(=O)c2cccc(C(F)(F)F)c2)C2CC2)c1` [Example 676, N-cyclopropyl-N-(3-(4-(cyclopropylamino)-7-methylquinazolin-6-yl)benzyl)-3-(trifluoromethyl)benzamide], for which the inhibition at 10 µM was found to be 75%. With `O=C(c1ccco1)N(Cc1cccc(-c2cc(F)c3ncnc(NC4CC4)c3c2)c1)C1CC1` [Example 677, N-cyclopropyl-N-(3-(4-(cyclopropylamino)-8-fluoroquinazolin-6-yl)benzyl)furan-2-carboxamide], the inhibition at 10 µM was 93%. `Cc1cc2ncnc(NC3CC3)c2cc1-c1cccc(CN(C2CC2)S(=O)(=O)c2cccc3cccnc23)c1` [Example 683, N-cyclopropyl-N-(3-(4-(cyclopropylamino)-7-methylquinazolin-6-yl)benzyl)quinoline-8-sulfonamide]: the inhibition at 10 µM stood at 31%. As for `Cc1cc2ncnc(NC3CC3)c2cc1-c1cccc(CN(C(=O)c2ccccc2C(F)(F)F)C2CC2)c1` [Example 684, N-cyclopropyl-N-(3-(4-(cyclopropylamino)-7-methylquinazolin-6-yl)benzyl)-2-(trifluoromethyl)benzamide], the inhibition at 10 µM was determined as 96%.

In the case of `O=C(c1cccs1)N(Cc1cccc(-c2cc(F)c3ncnc(NC4CC4)c3c2)c1)C1CC1` [Example 685, N-cyclopropyl-N-(3-(4-(cyclopropylamino)-8-fluoroquinazolin-6-yl)benzyl)thiophene-2-carboxamide], the inhibition at 10 µM was determined as 81%. Take `CNc1ncnc2ccc(-c3cccc(CN(C(=O)c4cccc(F)c4)c4ccccc4F)c3)cc12` [Example 687, 3-fluoro-N-(2-fluorophenyl)-N-(3-(4-(methylamino)quinazolin-6-yl)benzyl)benzamide]: the inhibition at 10 µM was 60%. For `COc1ccc(CNc2ncnc3ccc(-c4cccc(CN(C(=O)CN(C)C)C5CC5)c4)cc23)c(OC)c1` [Example 689, N-cyclopropyl-N-(3-(4-(2,4-dimethoxybenzylamino)quinazolin-6-yl)benzyl)-2-(dimethylamino)acetamide], the inhibition at 10 µM is 41%.
